Test results: US5623080A, “Fluorone and pyronin Y derivatives” (Spectra Group Limited, Inc., priority 1995, dated 1997)
Blank lines part the entries; values can stand above or below the compound they belong to.

Assays:
[1] = absorption wavelength (λmax) and extinction (ε); type: physicochemical; conditions: for λmax in EtOH (first value) / ε (first value) / λmax in EtOH / ε: Table 1, EtOH; for ε (first value): at first λmax, in M-1cm-1 (unit assumed); for ε: at second λmax; for absorption wavelength: comparison
depth of cure = experiment: depth of cure
Excerpt: One of the advantages of the fluorone dye photoinitiators in this invention is the depth of the cure that is obtainable. This is in contrast to UV photoinitators that causes a "screening" effect which prevents the UV light from penetrating beyond a certain […] depth, usually several millimeters. By contrast, the fluorone dye bleaches as it photoinitiates and is concommitantly converted into a non-visible absorbing species thus allowing more visible light to penetrate which continues the cure. This cascading bleaching effect permits substantial depth of cure which can easily reach several inches.
An acrylate monomer mixture was composed of 15 parts urethane diacrylate, 20 parts TPGPA, 40 parts TMPTA and 15 parts DPHPA, and a 20 to 1 weight ratio of NPG coinitiator to DIEF or DIBF fluorone dye. For dye concentrations of 0.01, 0.05 and 0.1 weight, all the formulations cured to a depth of 3 cm in 30 seconds when exposed to a 350 watt tungsten halogen light which provides about 500 mw/cm^2 irradiance. When the irradiance was increased to about 2 watts/cm^2 cure speed was shortened to 5 seconds for the same depth.
An acrylate mixture was composed of 60% urethane diacrylate, 30% DPHPA, 10% BDDA, and 0.05 weight % of DIEF or DIBF fluorone dye with 2 weight % of DIDMA. The formulation cure to a depth greater than 1 cm in 10 seconds when exposed to a 75 watt tungsten halogen lamp which provided an irradiance of about 260 mw/cm^2.
An acrylate mixture was composed of 33% TMPTA, 33% DPHPA, 33% Epoxy acrylate, and 2% of DIDMA with either 0.01, 0.05 or 0.1 weight % of DIEF. All samples cured to a depth greater than 1 cm in 10 seconds when exposed to a 75 watt tungsten halogen.
An acrylate mixture was composed of 70% urethane diacrylate, 5% DPHPA, 25% BDDA, and 2% DIDMA with either 0.01, 0.03 or 0.1 weight % DIEF. The 0.01 and 0.03 samples cured after 2 passes through a 300 watt per inch medium pressure mercury arc lamp at a speed of 50 feet/minute to a depth greater than 3 mm. The 0.1 sample cured to a depth of greater than 1.5 mm.

[2] = double bond conversion (C=C% Conversion) by FTIR; conditions: (1:2:3), DIDMA, 30 sec
Protocol: (§1) To a resin formulation consisting of 15 parts urethane diacrylate, 15 parts DPHPA, 20 parts TPGDA and 40 parts TMPTA was added DIDMA, initiator and (4-octyloxyphenyl)phenyliodonium hexafluoroantimonate (OPPI). The samples were coated to a thickness of 15 microns and exposed to a 75 W tungsten halogen dental lamp (focused through an optical fiber) at a distance of 0.75 inch at which the Light intensity was about 0.40 W/cm^2. The molar ratios are indicative of the amounts of fluorone to onium salt to amine coinitiator. The double bond conversion was determined by FTIR spectroscopy. The pencil hardness of a given test sample is measured by holding a pencil at a 45° angle to the sample and drawing across it towards the person testing it. Using the pencils in an order from softest to hardest, the first pencil that scratches the surface is assigned as the pencil hardness of the sample. The pencil hardness scale is as follows from softest to hardest: 4B, 3B, 2B, B, HB, H, 2H, 3H, 4H, 6H. For instance, if a 2H pencil is the first pencil to scratch the surface then the pencil hardness is 2H.

pencil hardness = conditions: 0.05 wt. %
Protocol: as §1
At the extreme ends of the scale, it is impossible to determine the actual pencil hardness. […] Likewise, if the 4B pencil scratches the sample, the only assignment that can be made is <4B, unless it is a lot softer than 4B in which case a <<4B can be assigned. A pencil hardness of 4H is generally considered satisfactory. Pencil hardness data was greater than 6H after 30 seocnd exposure for all samples except for the control samples without amine (1:2:0). The controls were all less than 4B an 0.05 wt %, 0.10 wt %, and 0.15 wt %.
Photosensitive compositions were prepared from the resin formulation of Example 35 containing 1% NPG and 0.05% DIBF or 0.05% DIEF. The samples were exposed under the conditions shown in the following table and pencil hardness was measured.
Diphenyliodonium hexafluoroantimonate was added to DIBF samples.
Samples were also prepared using 1% DIDMA in addition to the fluorone for a 20:1 weight ratio.
Samples were also prepared from the same resin formulation containing 0.1% DIBF in addition to the coinitiator listed in the following Table 9 with the exposure condition and pencil hardness results shown.
Using the resin formulation of Example 36, photosensitive compositions were prepared using TIHF, DIDMA and OPPI at a concentration of 0.21% and in the molar ratios shown in Table 10 which follows. Exposure was conducted with the dental lamp at a distance of 1 inch from the sample to provide an intensity of about 0.26 W/cm^2. Molar ratios are fluorone:onium salt:amine.

fluorescence (λf, φf) = type: physicochemical; conditions: 10^-7 M (footnote c)
Excerpt: In Table 2 below, the properties of the foregoing initiators are shown:
Entries in the table are in the solvents according to the following order.

pKa = type: physicochemical
Excerpt: (§2) In Table 2 below, the properties of the foregoing initiators are shown: […]

[3] = oxidation and reduction potentials (Eox, Ered); type: physicochemical; conditions: in V (unit assumed)
Excerpt: as §2

Compound: 5,7-diiodo-3-methoxy-6-fluorone [DIMF]
λmax in EtOH (first value) [1]: 470
ε (first value) [1]: 23,500

Compound: CCCCOc1ccc2c(C#N)c3cc(I)c(=O)c(I)c-3oc2c1 [Compound 7, 9-cyano-5,7-diiodo-3-butoxy-6-fluoorone]
λmax in EtOH (first value) [1]: 600

Compound: N#Cc1c2cc(Br)c(=O)c(Br)c-2oc2c(Br)c(O)c(Br)cc12 [Compound 14, 9-cyano-3-hydroxy-2,4,5,7-tetrabromo-6-fluorone]
λmax in EtOH [1]: 576
λmax in EtOH (first value) [1]: 626
ε (first value) [1]: 51400
ε [1]: 24500 M⁻¹ cm⁻¹

Compound: CCCCCCCCc1cc2c(C#N)c3cc(I)c(=O)c(I)c-3oc2c(I)c1O [Compound 20, 9-cyano-3-hydroxy-4,5,7-triiodo-2-octyl-6-fluorone]
λmax in EtOH (first value) [1]: 630
ε (first value) [1]: 40,000
absorption wavelength [1]: 630 nm
λmax ([1]; in EtOH): 630 nm

Compound: CC(C)(C)c1cc2cc3cc(C(C)(C)C)c(=O)c(I)c-3oc2c(I)c1O [Compound 26, 2,7-di-t-butyl-4,5-diiodo-3-hydroxy-6-fluorone]
λmax in EtOH (first value) [1]: 532
ε (first value) [1]: 90800

Compound: CC(C)(C)c1cc2c(C#N)c3cc(C(C)(C)C)c(=O)c(I)c-3oc2c(I)c1O [Compound 27, 9-cyano-2,7-di-t-butyl-4,5-diiodo-3-hydroxy-6-fluorone]
λmax in EtOH [1]: 582
λmax in EtOH (first value) [1]: 636
ε (first value) [1]: 68300
ε [1]: 33600 M⁻¹ cm⁻¹

Compound: O=c1ccc2cc3ccc(O)cc3sc-2c1 [Compound 29, 3-hydroxy-6-thiafluorone]
λmax in EtOH (first value) [1]: 524

Compound: CC(C)(C)c1cc2cc3cc(C(C)(C)C)c(=O)cc-3oc2cc1O [Compound 30, 2,7-di-t-butyl-3-hydroxy-6-fluorone]
λmax in EtOH (first value) [1]: 518
ε (first value) [1]: 101000

Compound: CC(C)(C)c1cc2c(C#N)c3cc(C(C)(C)C)c(=O)cc-3oc2cc1O [Compound 31, 9-cyano-2,7-di-t-butyl-3-hydroxy-6-fluorone]
λmax in EtOH [1]: 564
λmax in EtOH (first value) [1]: 614
ε (first value) [1]: 47400
ε [1]: 23200 M⁻¹ cm⁻¹

Compound: O=C(O)CCCc1cc2cc3ccc(O)cc3oc-2cc1=O [Compound 37a, 3-hydroxy-7-butyric acid-6-fluorone]
λmax in EtOH (first value) [1]: 512

Compound: N#Cc1c2ccc(=O)cc-2oc2cc(O)c(CCCC(=O)O)cc12 [Compound 37b, 9-cyano-3-hydroxy-7-butyric acid-6-fluorone]
λmax in EtOH (first value) [1]: 596
ε (first value) [1]: 74,000

Compound: CCOc1ccc2cc3cc(I)c(=O)c(I)c-3oc2c1 [DIEF, 5,7-diiodo-3-ethoxy-6-fluorone]
λmax in EtOH (first value) [1]: 470
ε (first value) [1]: 21,100
depth of cure (depth of cure; 0.01 and 0.03 weight %, 2 passes, 300 watt per inch medium pressure mercury arc lamp, 50 feet/minute, 2% DIDMA): greater than 3 mm
depth of cure (depth of cure; 0.1 weight %, 300 watt per inch medium pressure mercury arc lamp, 50 feet/minute, 2% DIDMA): greater than 1.5 mm
depth of cure (depth of cure; 10 seconds, 75 watt tungsten halogen, about 260 mw/cm^2, 0.05 weight % dye, 2 weight % DIDMA, 60% urethane diacrylate, 30% DPHPA, 10% BDDA): greater than 1 cm
depth of cure (depth of cure; 10 seconds, 75 watt tungsten halogen, 0.01, 0.05 or 0.1 weight %, 2% DIDMA, TMPTA/DPHPA/Epoxy acrylate): greater than 1 cm
depth of cure (depth of cure; 30 seconds, 350 watt tungsten halogen, about 500 mw/cm^2, dye 0.01, 0.05 and 0.1 weight, NPG 20 to 1): 3 cm
cure time for the same depth (3 cm) (depth of cure; about 2 watts/cm^2, NPG 20 to 1): 5 s
C=C% Conversion ([2]; 0.05 wt %): 40%
Pencil hardness (pencil hardness; 1% DIDMA, Dental Lamp, Air, 60 sec): 3B
Pencil hardness (pencil hardness; 1% DIDMA, Dental Lamp, No Air, 30 sec): 3B
Pencil hardness (pencil hardness; 1% DIDMA, Dental Lamp, No Air, 60 sec): 2B
Pencil hardness (pencil hardness; 1% DIDMA, Fusion (Q bulb), Air, 10 ft/min): 2B
Pencil hardness (pencil hardness; 1% DIDMA, Fusion (Q bulb), Air, 20 ft/min): > 4B
Pencil hardness (pencil hardness; 1% NPG, Dental Lamp, Air, 60 sec): 2B
Pencil hardness (pencil hardness; 1% NPG, Dental Lamp, No Air, 10 sec): < 4B
Pencil hardness (pencil hardness; 1% NPG, Dental Lamp, No Air, 30 sec): 2H
Pencil hardness (pencil hardness; 1% NPG, Dental Lamp, No Air, 60 sec): 3H
Pencil hardness (pencil hardness; 1% NPG, Fusion (Q bulb), Air, 10 ft/min): > 6H
Pencil hardness (pencil hardness; 1% NPG, Fusion (Q bulb), Air, 20 ft/min): 3H
Pencil hardness (pencil hardness; 1% NPG, Overhead Proj., Air, 60 sec): 3B
Pencil hardness (pencil hardness; 1% NPG, Overhead Proj., No Air, 60 sec): 3H

Compound: CCCCCCCCOc1ccc2cc3cc(I)c(=O)c(I)c-3oc2c1 [DIOF, 5,7-diiodo-3-octoxy-6-fluorone]
λmax in EtOH (first value) [1]: 470
ε (first value) [1]: 31,600
C=C% Conversion ([2]; 0.05 wt %): 40%
C=C% Conversion ([2]; 0.15 wt %): 40%

Compound: O=c1ccc2cc3ccc(O)cc3oc-2c1 [HF, 3-Hydroxy-6-fluorone]
λmax in EtOH (first value) [1]: 504
ε (first value) [1]: 24700
λmax ([1]; methanol, synthesis example): 500 nm
φf (fluorescence (λf, φf)): .95
pKa (pKa): 5.97
Eox [3]: 1.34
Ered [3]: -.99

Further lines, with some results ahead:

λmax in EtOH (first value) [1]: 472
Compound: Cc1ccc(-n2c3cc(=N)ccc-3cc3ccc(N)cc32)cc1 [N.phi.CH3 NH2 /NH2 + H H H H H]

λmax in EtOH (first value) [1]: 472
Compound: C=CC(=O)OCCCCCCOc1ccc2cc3cc(I)c(=O)c(I)c-3oc2c1 [O O/O(CH2)6 OCOCH=CH2 H I H I H]

λmax in EtOH [1]: 548
λmax in EtOH (first value) [1]: 594
ε (first value) [1]: 50300
ε [1]: 24700 M⁻¹ cm⁻¹
Compound: N#Cc1c2ccc(=O)cc-2oc2cc(O)ccc12 [O O/O^- CN H H H H, 9-Cyano-3-hydroxy-6-fluorone]

λmax in EtOH (first value) [1]: 510
Compound: CCOC(=O)CCCc1cc2cc3ccc(=O)cc-3oc2cc1O [O O/O^- H H H H (CH2)3 COOEt]

λmax in EtOH (first value) [1]: 534
ε (first value) [1]: 92,600
Compound: CCCCCCCCc1cc2cc3cc(I)c(=O)c(I)c-3oc2c(I)c1O [O O/O^- H I H I (CH2)7 CH3, 3-hydroxy-4,5,7-triiodo-2-octyl-6-fluorone]

λmax in EtOH (first value) [1]: 610
Compound: N#Cc1c2ccc(=O)cc-2sc2cc(O)ccc12 [S O/O^- CN H H H H]

λmax in EtOH [1]: 586
λmax in EtOH (first value) [1]: 638
ε (first value) [1]: 80000
ε [1]: 35000 M⁻¹ cm⁻¹
absorption wavelength [1]: 636 nm
λmax ([1]; ethanol, synthesis example): 638 nm
Compound: N#Cc1c2cc(I)c(=O)c(I)c-2oc2c(I)c(O)c(I)cc12 [TIHCF, 9-cyano-3-hydroxy-2,4,5,7-tetraiodo-6-fluorone]
depth of cure results (depth of cure; other fluorone dyes): have also been observed
